According to US20100280268A1, “H[…] RESOLVED FL[…] TEST SYSTEM” (priority 2006, published 2010):
Ends that are not written are not given here.

Biological target: T1, HIV six-helix bundle of gp41 (IQN36 / C34) (Human immunodeficiency virus type 1 group M subtype B, UniProt P04578)
T1 construct: made in house; host or cells: chemical peptide synthesis, no expression host
Experiment: HIV-FRET IQN36/C34 homogeneous time resolved fluorescence test system (6-helix bundle formation)
Format: binding, Human Immunodeficiency Virus (HIV-1)
Method: All reagents were dissolved in 100 mM Hepes buffer pH 7.2. Test compounds were serially diluted and then added to 384-well plates. A final concentration of 10 nM S-APC and 100 nM IQN36-biotin were mixed in tubes, incubated for 30 min at room temperature and then added to well containing test compound. The compound/S-APC/IQN36-biotin mixture was incubated for another 2 hours at room temperature.

Q: With `CCCCNc1cc(Oc2ccc(NS(=O)(=O)c3ccc(C)cc3)c(C(=O)O)c2)ccc1NS(=O)(=O)c1ccc(C)cc1` [Compound 9, 5-[3-Butylamino-4-(toluene-4-sulfonylamino)-phenoxy]-2-(toluene-4-sulfonylamino)-benzoic acid] as the compound, how does the IC50 read?
A: 1.81 µM

Q: `Cc1ccc(S(=O)(=O)Nc2ccc(Oc3ccc(NS(=O)(=O)c4ccc(C)cc4)c(C(=O)O)c3)cc2Cc2ccccc2)cc1` [Compound 12, 5-[3-Benzyl-4-(toluene-4-sulfonylamino)-phenoxy]-2-(toluene-4-sulfonylamino)-benzoic acid] was tested. Which IC50 did it give?
A: 2.09 µM

Q: With `Cc1ccc(S(=O)(=O)Nc2ccc(Oc3ccc(NS(=O)(=O)c4ccc(C)cc4)c(C(=O)O)c3)cc2OCC(C)C)cc1` [Compound 7, 5-[3-Isobutoxy-4-(toluene-4-sulfonylamino)-phenoxy]-2-(toluene-4-sulfonylamino)-benzoic acid] as the compound, how does the IC50 read?
A: 3.27 µM

Q: For `COC(=O)c1cc(Cc2cc(Cc3ccc(NS(=O)(=O)c4ccc(C)cc4)c(C(=O)O)c3)cc(C(=O)O)c2NS(=O)(=O)c2ccc(C)cc2)ccc1NS(=O)(=O)c1ccc(C)cc1` [Compound 1], which IC50 is on record?
A: 3.27 µM

Q: With `CNc1cc(Oc2ccc(NS(=O)(=O)c3ccc(C)cc3)c(C(=O)O)c2)ccc1NS(=O)(=O)c1ccc(C)cc1` [Compound 13, 5-[3-Methylamino-4-(toluene-4-sulfonylamino)-phenoxy]-2-(toluene-4-sulfonylamino)-benzoic acid] as the compound, how does the IC50 read?
A: 2.69 µM

Q: With `Cc1ccc(S(=O)(=O)Nc2ccc(Oc3ccc(NS(=O)(=O)c4ccc(C)cc4)c(-c4ccccc4)c3)cc2C(=O)O)cc1` [Compound 6, 2-(Toluene-4-sulfonylamino)-5-[6-(toluene-4-sulfonylamino)-biphenyl-3-yloxy]-benzoic acid] as the compound, how does the IC50 read?
A: 3.16 µM

Q: With `Cc1ccc(S(=O)(=O)Nc2ccc(Oc3ccc4c(c3)CCCN4S(=O)(=O)c3ccc(C)cc3)cc2C(=O)O)cc1` [Compound 3, 2-(4-methylphenylsulfonamino)-5-[1-(toluene-4-sulfonyl)-1,2,3,4-tetrahydro-quinolin-6-yloxy]-benzoic acid] as the compound, how does the IC50 read?
A: 2.88 µM

Q: How did the IC50 turn out when `Cc1ccc(S(=O)(=O)Nc2ccc(Oc3ccc(NS(=O)(=O)c4ccc(C)cc4)c(C(=O)O)c3)cc2NCc2ccccc2)cc1` [Compound 8, 5-[3-Benzylamino-4-(toluene-4-sulfonylamino)-phenoxy]-2-(toluene-4-sulfonylamino)-benzoic acid] was run?
A: 2.27 µM

Q: How did the IC50 turn out when `CCNc1cc(Oc2ccc(NS(=O)(=O)c3ccc(C)cc3)c(C(=O)O)c2)ccc1NS(=O)(=O)c1ccc(C)cc1` [Compound 11, 5-[3-Ethylamino-4-(toluene-4-sulfonylamino)-phenoxy]-2-(toluene-4-sulfonylamino)-benzoic acid] was run?
A: 2.47 µM

Q: How did the IC50 turn out when `Cc1ccc(S(=O)(=O)Nc2ccc(Oc3ccc(NS(=O)(=O)c4ccc(C)cc4)c(N(C)Cc4ccccc4)c3)cc2C(=O)O)cc1` [Compound 10, 5-[3-(Benzyl-methyl-amino)-4-(toluene-4-sulfonylamino)-phenoxy]-2-(toluene-4-sulfonylamino)-benzoic acid] was run?
A: 2.64 µM

Q: Which IC50 does the source give for `Cc1ccc(S(=O)(=O)Nc2ccc(Oc3ccc(NS(=O)(=O)c4ccc(C)cc4)c(C(=O)O)c3)cc2OCc2ccccc2)cc1` [Compound 2, 5-[3-Benzyloxy-4-(toluene-4-sulfonylamino)-phenoxy]-2-(toluene-4-sulfonylamino)-benzoic acid] here?
A: 2.72 µM

Q: For “NFYDPLVFPSDEFDASISQVNEKINQSLAFIRKSDELLHNVNAGK [Compound C45, reference compound]”, which IC50 is on record?
A: > 10 µM

Q: Which IC50 does the source give for `CCCCCCN(c1ccc(Oc2ccc(NS(=O)(=O)c3ccc(C)cc3)c(C(=O)O)c2)cc1)S(=O)(=O)c1ccc(C)cc1` [Compound 4, 5-{4-[Hexyl-(toluene-4-sulfonyl)-amino]-phenoxy}-2-(4-methylphenylsulfonamino)-benzoic acid] here?
A: 4.45 µM

Q: How did the IC50 turn out when `CCCCCOc1cc(Oc2ccc(NS(=O)(=O)c3ccc(C)cc3)c(C(=O)O)c2)ccc1NS(=O)(=O)c1ccc(C)cc1` [Compound 5, 5-[3-pentyloxy-4-(toluene-4-sulfonylamino)-phenoxy]-2-(toluene-4-sulfonylamino)-benzoic acid] was run?
A: 3.48 µM
